The values below come from patent publication US20230167073A1 (Teijin Pharma Limited, priority 2020, published 2023).

SMILES strings stand for the structures.

In this test the target is T1, Human TRPC6 (Homo sapiens, UniProt Q9Y210).
T1 construct: expressed in transfected cells
T1 sequence (Q9Y210 1-931): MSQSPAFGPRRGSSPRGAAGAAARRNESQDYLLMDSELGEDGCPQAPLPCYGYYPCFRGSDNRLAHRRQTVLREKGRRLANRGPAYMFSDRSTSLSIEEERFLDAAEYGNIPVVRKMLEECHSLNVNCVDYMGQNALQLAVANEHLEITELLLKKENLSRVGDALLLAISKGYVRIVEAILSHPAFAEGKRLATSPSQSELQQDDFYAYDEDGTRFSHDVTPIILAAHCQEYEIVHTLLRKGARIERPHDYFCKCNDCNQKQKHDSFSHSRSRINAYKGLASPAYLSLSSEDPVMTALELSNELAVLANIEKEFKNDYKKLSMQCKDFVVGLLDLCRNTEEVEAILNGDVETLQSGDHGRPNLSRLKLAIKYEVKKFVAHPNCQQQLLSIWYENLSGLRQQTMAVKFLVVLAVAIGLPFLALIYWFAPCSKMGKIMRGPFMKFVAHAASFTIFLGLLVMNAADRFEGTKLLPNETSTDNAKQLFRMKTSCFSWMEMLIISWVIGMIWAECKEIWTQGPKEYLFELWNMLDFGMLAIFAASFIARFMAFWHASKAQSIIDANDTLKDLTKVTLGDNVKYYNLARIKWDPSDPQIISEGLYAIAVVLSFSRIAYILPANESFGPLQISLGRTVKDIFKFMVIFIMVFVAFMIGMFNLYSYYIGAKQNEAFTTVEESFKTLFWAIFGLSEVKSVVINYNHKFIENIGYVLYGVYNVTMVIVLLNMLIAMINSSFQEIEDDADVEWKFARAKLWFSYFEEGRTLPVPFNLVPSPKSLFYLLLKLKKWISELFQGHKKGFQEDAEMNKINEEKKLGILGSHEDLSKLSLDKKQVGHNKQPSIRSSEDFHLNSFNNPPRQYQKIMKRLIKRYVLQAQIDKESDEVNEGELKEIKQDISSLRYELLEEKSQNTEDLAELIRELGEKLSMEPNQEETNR
The test is described as follows: Evaluation of TRPC6 channel inhibitory activity (1), FLIPR Calcium 5 Assay Kit, OAG stimulation (Compound Nos. 1-1293). The format is cell-based. Particulars: Human TRPC6 stably-expressing cells, OAG 30 μM, FLIPR Calcium 5 Assay Kit; read-out: Inhibitory activity (pIC50 class) (converted). The gist of the method: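 TRPC6 (human) stable cells, 24 h culture; Ca5 no-wash dye + probenecid 30 min; cpd 20 min; OAG 30 μM final; ΔF (pre-cpd min to post-OAG max); 0%/100% = no cpd / no cpd + no OAG; 4PL → pIC50, binned +/++/+++.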

Take `N#Cc1ccc(-n2cc(CCN)cn2)c(Sc2cnnc(N3CCCC3)c2)c1` [compound 1247, 4-[4-(2-aminoethyl)pyrazol-1-yl]-3-(6-pyrrolidin-1-ylpyridazin-4-yl)sulfanylbenzonitrile]: the IC50 is 10 to 1000 nM.
Take `Cc1nc(Sc2cc(C#N)ccc2-c2ccc(CCN)cn2)cc(N2CCOCC2)n1` [compound 1248, 4-[5-(2-aminoethyl)pyridin-2-yl]-3-(2-methyl-6-morpholin-4-ylpyrimidin-4-yl)sulfanylbenzonitrile]: the IC50 was 10 to 1000 nM.
Take `Cc1nc(Sc2cc(C#N)ccc2-c2ccc(CCN)cn2)cc(N2CCCCC2)n1` [compound 1249, 4-[5-(2-aminoethyl)pyridin-2-yl]-3-(2-methyl-6-piperidin-1-ylpyrimidin-4-yl)sulfanylbenzonitrile]: the IC50 was less than 10 nM.
`Cc1nc(Sc2cc(C#N)ccc2-c2ccc(CCN)cn2)cc(N2CCCC2)n1` [compound 1250, 4-[5-(2-aminoethyl)pyridin-2-yl]-3-(2-methyl-6-pyrrolidin-1-ylpyrimidin-4-yl)sulfanylbenzonitrile]: the IC50 was 10 to 1000 nM.
Take `Cc1nc(Sc2cc(C#N)ccc2-n2cc(CCN)cn2)cc(N2CCOCC2)n1` [compound 1251, 4-[4-(2-aminoethyl)pyrazol-1-yl]-3-(2-methyl-6-morpholin-4-ylpyrimidin-4-yl)sulfanylbenzonitrile]: the IC50 is 10 to 1000 nM.
As to `Cc1nc(Sc2cc(C#N)ccc2-n2cc(CCN)cn2)cc(N2CCCCC2)n1` [compound 1252, 4-[4-(2-aminoethyl)pyrazol-1-yl]-3-(2-methyl-6-piperidin-1-ylpyrimidin-4-yl)sulfanylbenzonitrile], the IC50 is 10 to 1000 nM.
On to `Cc1nc(Sc2cc(C#N)ccc2-n2cc(CCN)cn2)cc(N2CCCC2)n1` [compound 1253, 4-[4-(2-aminoethyl)pyrazol-1-yl]-3-(2-methyl-6-pyrrolidin-1-ylpyrimidin-4-yl)sulfanylbenzonitrile], for which the IC50 is 10 to 1000 nM.
With `Cc1nc(Sc2cc(C#N)ccc2-c2ncc(CCN)cn2)cc(N2CCOCC2)n1` [compound 1254, 4-[5-(2-aminoethyl)pyrimidin-2-yl]-3-(2-methyl-6-morpholin-4-ylpyrimidin-4-yl)sulfanylbenzonitrile], the IC50 is 10 to 1000 nM.
As for `Cc1nc(Sc2cc(C#N)ccc2-c2ncc(CCN)cn2)cc(N2CCCCC2)n1` [compound 1255, 4-[5-(2-aminoethyl)pyrimidin-2-yl]-3-(2-methyl-6-piperidin-1-ylpyrimidin-4-yl)sulfanylbenzonitrile], the IC50 was less than 10 nM.
For the compound `Cc1nc(Sc2cc(C#N)ccc2-c2ncc(CCN)cn2)cc(N2CCCC2)n1` [compound 1256, 4-[5-(2-aminoethyl)pyrimidin-2-yl]-3-(2-methyl-6-pyrrolidin-1-ylpyrimidin-4-yl)sulfanylbenzonitrile], the IC50 is 10 to 1000 nM.
For the compound `N#Cc1ccc(-c2ncc(CCN)cn2)c(Sc2cnnc(N3CCOCC3)c2)c1` [compound 1257, 4-[5-(2-aminoethyl)pyrimidin-2-yl]-3-(6-morpholin-4-ylpyridazin-4-yl)sulfanylbenzonitrile], the IC50 was 10 to 1000 nM.
For `N#Cc1ccc(-c2ncc(CCN)cn2)c(Sc2cnnc(N3CCCCC3)c2)c1` [compound 1258, 4-[5-(2-aminoethyl)pyrimidin-2-yl]-3-(6-piperidin-1-ylpyridazin-4-yl)sulfanylbenzonitrile], the IC50 was less than 10 nM.
With `N#Cc1ccc(-c2ncc(CCN)cn2)c(Sc2cnnc(N3CCCC3)c2)c1` [compound 1259, 4-[5-(2-aminoethyl)pyrimidin-2-yl]-3-(6-pyrrolidin-1-ylpyridazin-4-yl)sulfanylbenzonitrile] the figure was less than 10 nM.
With `Cc1cc(Sc2cc(C#N)ccc2-c2ncc(CCN)cn2)cc(N2CCOCC2)n1` [compound 1260, 4-[5-(2-aminoethyl)pyrimidin-2-yl]-3-(2-methyl-6-morpholin-4-ylpyridin-4-yl)sulfanylbenzonitrile] the figure was 10 to 1000 nM.
On to `Cc1cc(Sc2cc(C#N)ccc2-c2ncc(CN)cn2)cc(N2CCOCC2)n1` [compound 1261, 4-[5-(aminomethyl)pyrimidin-2-yl]-3-(2-methyl-6-morpholin-4-ylpyridin-4-yl)sulfanylbenzonitrile], for which the IC50 is more than 1000 nM.
For the compound `Cc1nc(Sc2cc(C#N)ccc2-c2ncc(CN)cn2)cc(N2CCCC2)n1` [compound 1262, 4-[5-(aminomethyl)pyrimidin-2-yl]-3-(2-methyl-6-pyrrolidin-1-ylpyrimidin-4-yl)sulfanylbenzonitrile], the IC50 was more than 1000 nM.
`Cc1nc(Sc2cc(C#N)ccc2-c2ncc(CN)cn2)cc(N(C)C)n1` [compound 1263, 4-[5-(aminomethyl)pyrimidin-2-yl]-3-[6-(dimethylamino)-2-methylpyrimidin-4-yl]sulfanylbenzonitrile]: the IC50 is more than 1000 nM.
Regarding `N#Cc1ccc(-c2ccc(CN)cn2)c(Sc2cnnc(N3CCCC3)c2)c1` [compound 1264, 4-[5-(aminomethyl)pyridin-2-yl]-3-(6-pyrrolidin-1-ylpyridazin-4-yl)sulfanylbenzonitrile], the IC50 is 10 to 1000 nM.
With `N#Cc1ccc(-c2ncc(CN)cn2)c(Sc2cnnc(N3CCCC3)c2)c1` [compound 1265, 4-[5-(aminomethyl)pyrimidin-2-yl]-3-(6-pyrrolidin-1-ylpyridazin-4-yl)sulfanylbenzonitrile] the figure was 10 to 1000 nM.
On to `CN(C)c1cc(Sc2cc(C#N)ccc2-c2ccc(CN)cn2)cnn1` [compound 1266, 4-[5-(aminomethyl)pyridin-2-yl]-3-[6-(dimethylamino)pyridazin-4-yl]sulfanylbenzonitrile], for which the IC50 is 10 to 1000 nM.
`CN(C)c1cc(Sc2cc(C#N)ccc2-c2ncc(CN)cn2)cnn1` [compound 1267, 4-[5-(aminomethyl)pyrimidin-2-yl]-3-[6-(dimethylamino)pyridazin-4-yl]sulfanylbenzonitrile]: the IC50 was more than 1000 nM.
Regarding `N#Cc1ccc(-c2ncc(CN)cn2)c(Sc2cnnc(N3CCCCC3)c2)c1` [compound 1268, 4-[5-(aminomethyl)pyrimidin-2-yl]-3-(6-piperidin-1-ylpyridazin-4-yl)sulfanylbenzonitrile], the IC50 was 10 to 1000 nM.
With `N#Cc1ccc(-c2ncc(CN)cn2)c(Sc2nnc(N3CCCCC3)s2)c1` [compound 1269, 4-[5-(aminomethyl)pyrimidin-2-yl]-3-[(5-piperidin-1-yl-1,3,4-thiadiazol-2-yl)sulfanyl]benzonitrile], the IC50 was more than 1000 nM.
With `N#Cc1ccc(-c2ncc(CCN)cn2)c(Sc2nnc(N3CCCCC3)s2)c1` [compound 1270, 4-[5-(2-aminoethyl)pyrimidin-2-yl]-3-[(5-piperidin-1-yl-1,3,4-thiadiazol-2-yl)sulfanyl]benzonitrile], the IC50 is 10 to 1000 nM.
With `N#Cc1ccc(-c2ncc(CN)cn2)c(Sc2nnc(N3CCOCC3)s2)c1` [compound 1271, 4-[5-(aminomethyl)pyrimidin-2-yl]-3-[(5-morpholin-4-yl-1,3,4-thiadiazol-2-yl)sulfanyl]benzonitrile], the IC50 is more than 1000 nM.
For `CC(C)Nc1cc(Sc2cc(C#N)ccc2-c2ncc(CN)cn2)cnn1` [compound 1272, 4-[5-(aminomethyl)pyrimidin-2-yl]-3-[6-(propan-2-ylamino)pyridazin-4-yl]sulfanylbenzonitrile], the IC50 is 10 to 1000 nM.
For `CC(C)CNc1cc(Sc2cc(C#N)ccc2-c2ncc(CN)cn2)cnn1` [compound 1273, 4-[5-(aminomethyl)pyrimidin-2-yl]-3-[6-(2-methylpropylamino)pyridazin-4-yl]sulfanylbenzonitrile] the value was 10 to 1000 nM; for `N#Cc1ccc(-c2ncc(CCN)cn2)c(Sc2sc(-c3ccccc3)nc2C#N)c1` [compound 1274, 5-[2-[5-(2-aminoethyl)pyrimidin-2-yl]-5-cyanophenyl]sulfanyl-2-phenyl-1,3-thiazole-4-carbonitrile], 10 to 1000 nM.
For `N#Cc1ccc(-c2ncc(CCN)cn2)c([S+]([O-])c2cnnc(-c3ccccc3)c2)c1` (stereo not drawn) [compound 1275, 4-[5-(2-aminoethyl)pyrimidin-2-yl]-3-(6-phenylpyridazin-4-yl)sulfinylbenzonitrile] the value was more than 1000 nM; for `Cn1nc(-c2ccccc2)cc1Oc1cc(C#N)ncc1-c1ccc(CN)cn1` [compound 1278, 5-[5-(aminomethyl)pyridin-2-yl]-4-(2-methyl-5-phenylpyrazol-3-yl)oxypyridine-2-carbonitrile], 10 to 1000 nM.
